Results reported in patent US12077503B2, “Substituted cyclic amides and their use as herbicides” (FMC CORPORATION, priority 2015, dated 2024).

What was measured:
Assay type in all cases: in vivo
Kochia (Kochia scoparia) [1] = assay: Test A preemergence; settings: Bassia scoparia, pre-emergence, 240 h, Preemergence
Procedure, shortened: (§1)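 Visual injury, scored on a 0–100 scale relative to untreated controls, was recorded about 10 d after application. Treatments were a preemergence soil spray over planted seeds or a postemergence spray on plants at the one- to two-leaf stage, 2 to 10 cm tall, all in loam soil–sand blend in the greenhouse.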

[2] = test system: barnyardgrass (Echinochloa crus-galli); assay: Test A preemergence; settings: Echinochloa crus-galli, pre-emergence, 240 h, Preemergence
Procedure, shortened: as §1

[3] = test system: giant foxtail (Setaria faberii); assay: Test A preemergence; settings: Setaria faberi, pre-emergence, 240 h, Preemergence
Procedure, shortened: as §1

[4] = test system: pigweed (Amaranthus retroflexus); assay: Test A preemergence; settings: Amaranthus retroflexus, pre-emergence, 240 h, Preemergence
[5] = test system: ragweed (common ragweed, Ambrosia elatior); assay: Test A preemergence; settings: Ambrosia artemisiifolia, pre-emergence, 240 h, Preemergence
Procedure, shortened: as §1

[6] = test system: ryegrass, Italian (Italian ryegrass, Lolium multiflorum); assay: Test A preemergence; settings: Lolium multiflorum, pre-emergence, 240 h, Preemergence
Procedure, shortened: as §1

[7] = test system: Galium (catchweed bedstraw, Galium aparine); assay: Test A postemergence; settings: Galium, post-emergence, 240 h, Postemergence, read-out: Plant response rating, Galium
Procedure, shortened: as §1

Kochia (Kochia scoparia) [8] = assay: Test A postemergence; settings: Bassia scoparia, post-emergence, 240 h, Postemergence, read-out: Plant response rating, Kochia
Procedure, shortened: as §1

[9] = test system: barnyardgrass (Echinochloa crus-galli); assay: Test A postemergence; settings: Echinochloa crus-galli, post-emergence, 240 h, Postemergence, read-out: Plant response rating, Barnyardgrass
Procedure, shortened: as §1

[10] = test system: blackgrass (Alopecurus myosuroides); assay: Test A postemergence; settings: Alopecurus myosuroides, post-emergence, 240 h, Postemergence, read-out: Plant response rating, Blackgrass
Procedure, shortened: as §1

corn (Zea mays) = assay: Test A postemergence; settings: Zea mays, post-emergence, 240 h, Postemergence
Procedure, shortened: as §1

[11] = test system: giant foxtail (Setaria faberii); assay: Test A postemergence; settings: Setaria faberi, post-emergence, 240 h, Postemergence, read-out: Plant response rating, Foxtail, Giant
Procedure, shortened: as §1

[12] = test system: pigweed (Amaranthus retroflexus); assay: Test A postemergence; settings: Amaranthus retroflexus, post-emergence, 240 h, Postemergence, read-out: Plant response rating, Pigweed
Procedure, shortened: as §1

[13] = test system: ragweed (common ragweed, Ambrosia elatior); assay: Test A postemergence; settings: Ambrosia artemisiifolia, post-emergence, 240 h, Postemergence, read-out: Plant response rating, Ragweed
Procedure, shortened: as §1

[14] = test system: ryegrass, Italian (Italian ryegrass, Lolium multiflorum); assay: Test A postemergence; settings: Lolium multiflorum, post-emergence, 240 h, Postemergence, read-out: Plant response rating, Ryegrass, Italian
Procedure, shortened: as §1

[15] = test system: wheat (Triticum aestivum); assay: Test A postemergence; settings: Triticum aestivum, post-emergence, 240 h, Postemergence, read-out: Plant response rating, Wheat
Procedure, shortened: as §1

[16] = test system: barnyardgrass (Echinochloa crus-galli); assay: Test B flooded paddy test; settings: Echinochloa crus-galli, 250 g ai/ha, Flood; 0 to 100 scale where 0 is no effect and 100 is complete control; read-out: Barnyardgrass plant response rating
Procedure, shortened: (§2)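 Response scored visually against untreated controls, 0 = no effect and 100 = complete control, 13–15 d after treatment in the greenhouse. Compounds added to paddy water held 3 cm above soil surface. Treatment given at 2-leaf stage.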

[17] = test system: ducksalad (Heteranthera limosa); assay: Test B flooded paddy test; settings: Heteranthera limosa, 250 g ai/ha, Flood; 0 to 100 scale where 0 is no effect and 100 is complete control; read-out: Ducksalad plant response rating
Procedure, shortened: as §2

rice (Oryra sativa) = assay: Test B flooded paddy test; settings: Oryza sativa, 250 g ai/ha, Flood; 0 to 100 scale where 0 is no effect and 100 is complete control; read-out: Rice plant response rating
Procedure, shortened: as §2

[18] = test system: sedge, umbrella (small-flower umbrella sedge, Cyperus difformis); assay: Test B flooded paddy test; settings: Cyperus difformis, 250 g ai/ha, Flood; 0 to 100 scale where 0 is no effect and 100 is complete control; read-out: Sedge, Umbrella plant response rating
Procedure, shortened: as §2

[19] = 125 g ai/ha, visual injury after approximately 10 d, 0 to 100 scale where 0 is no effect and 100 is complete control
[20] = 31 g ai/ha, visual injury after approx. 10 d, 0 to 100 scale, 0 no effect, 100 complete control

## CN1CC[C@H](c2ccccc2C(F)(F)F)[C@@H](C(=O)Nc2ccccc2C(F)(F)F)C1=O [Compound 1008]
Kochia (Kochia scoparia) [1]; 31 g ai/ha, 0 to 100 scale where 0 is no effect and 100 is complete control, read-out: Kochia plant response rating
  pest or weed control at 31 g/ha: 0%
Kochia (Kochia scoparia) [1]; 125 g ai/ha, visual injury rating after approximately 10 d, read-out: Kochia plant response rating (0 to 100 scale, 0 is no effect, 100 is complete control)
  pest or weed control at 125 g/ha: 0%
[2]; 125 g ai/ha, visual injury rating after approximately 10 d, read-out: Barnyardgrass plant response rating (0 to 100 scale, 0 is no effect, 100 is complete control)
  pest or weed control at 125 g/ha: 0%
[2]; 31 g ai/ha, 0 to 100 scale (0 no effect, 100 complete control), read-out: Plant response rating, Barnyardgrass
  pest or weed control at 31 g/ha: 0%
[3]; 125 g ai/ha, visual injury rating after approximately 10 d, read-out: Foxtail, Giant plant response rating (0 to 100 scale, 0 is no effect, 100 is complete control)
  pest or weed control at 125 g/ha: 0%
[3]; 31 g ai/ha, 0 to 100 scale (0 no effect, 100 complete control), read-out: Plant response rating, Foxtail, Giant
  pest or weed control at 31 g/ha: 0%
[4]; 31 g ai/ha, 0 to 100 scale where 0 is no effect and 100 is complete control, read-out: Pigweed plant response rating
  pest or weed control at 31 g/ha: 0%
[4]; 125 g ai/ha, visual injury rating after approximately 10 d, read-out: Pigweed plant response rating (0 to 100 scale, 0 is no effect, 100 is complete control)
  pest or weed control at 125 g/ha: 0%
[5]; 31 g ai/ha, 0 to 100 scale where 0 is no effect and 100 is complete control, read-out: Ragweed plant response rating
  pest or weed control at 31 g/ha: 0%
[5]; 125 g ai/ha, visual injury rating after approximately 10 d, read-out: Ragweed plant response rating (0 to 100 scale, 0 is no effect, 100 is complete control)
  pest or weed control at 125 g/ha: 0%
[6]; 31 g ai/ha, 0 to 100 scale where 0 is no effect and 100 is complete control, read-out: Ryegrass, Italian plant response rating
  pest or weed control at 31 g/ha: 0%
[6]; 125 g ai/ha, visual injury rating after approximately 10 d, read-out: Ryegrass, Italian plant response rating (0 to 100 scale, 0 is no effect, 100 is complete control)
  pest or weed control at 125 g/ha: 0%
[7]; [19]
  pest or weed control at 125 g/ha: 0%
[7]; [20]
  pest or weed control at 31 g/ha: 0%
Kochia (Kochia scoparia) [8]; [19]
  pest or weed control at 125 g/ha: 0%
Kochia (Kochia scoparia) [8]; [20]
  pest or weed control at 31 g/ha: 0%
[9]; [19]
  pest or weed control at 125 g/ha: 0%
[9]; [20]
  pest or weed control at 31 g/ha: 0%
[10]; [19]
  pest or weed control at 125 g/ha: 0%
[10]; [20]
  pest or weed control at 31 g/ha: 0%
Corn (Zea mays); [19]
  Corn plant response rating (crop injury, 0 = no effect, 100 = complete kill) at 125 g/ha: 0%
Corn (Zea mays); [20]
  Corn plant response rating (crop injury, 0 = no effect, 100 = complete kill) at 31 g/ha: 0%
[11]; [19]
  pest or weed control at 125 g/ha: 0%
[11]; [20]
  pest or weed control at 31 g/ha: 0%
[12]; [19]
  pest or weed control at 125 g/ha: 0%
[12]; [20]
  pest or weed control at 31 g/ha: 0%
[13]; [19]
  pest or weed control at 125 g/ha: 0%
[13]; [20]
  pest or weed control at 31 g/ha: 0%
[14]; [19]
  pest or weed control at 125 g/ha: 0%
[14]; [20]
  pest or weed control at 31 g/ha: 0%
[15]; [19]
  plant injury at 125 g/ha: 0%
[15]; [20]
  plant injury at 31 g/ha: 0%
[16]
  pest or weed control at 250 g/ha: 0%
[17]
  pest or weed control at 250 g/ha: 95%
Rice (Oryra sativa)
  pest or weed control at 250 g/ha: 0%
[18]
  pest or weed control at 250 g/ha: 0%
